According to patent US12661358B2, “Purine derivatives as drugs for the treatment of neonatal hypoxia-ischemia brain injury and related diseases” (COMMISSARIAT A L'ENERGIE ATOMIQUE ET AUX ENERGIES …, priority 2020, dated 2026):

Key:
[1] = tested on: primary rat cell-based BBB (blood-brain barrier) model; assay: Permeability of 14C-sucrose on primary rat cell-based BBB model after LPS challenge; conditions: LPS 10 ng/mL; compound at 0.1 μM and 1 μM; figure axis in 10^−6 cm·s^−1
Method: FIG. 2A: The permeability of radiolabelled sucrose, a permeability marker, was studied on a primary rat cell-based BBB (blood-brain barrier) model after lipopolysaccharide (LPS) challenge.
First graph (left): y-axis: permeability of ^14C-sucrose through the BBB (10^−6 cm·s^−1); x-axis (from left to right): BBB control (negative control); BBB+LPS (10 ng/mL) (positive control); BBB+Compound 13 (0.1 μM); BBB+LPS+Compound 13 (0.1 μM); BBB+Compound 13 (1 μM); BBB+LPS+Compound 13 (1 μM).
Second graph (right): y-axis: permeability of ^14C-sucrose through the BBB (10^−6 cm·s^−1); x-axis (from left to right): BBB control (negative control); BBB+LPS (10 ng/mL) (positive control); BBB+Aftin-5 (0.1 μM); BBB+LPS+Aftin-5 (0.1 μM); BBB+Aftin-5 (1 μM); BBB+LPS+Aftin-5 (1 μM).
The permeability of radiolabelled sucrose (^14C-sucrose), a permeability marker, was studied on a primary rat cell-based BBB (blood-brain barrier) model. Permeability was measured in 10^−6 cm·s^−1. ^14C-sucrose is a small molecular weight marker of 342 Da that tends to reflect paracellular disruption.
To induce increased BBB permeability, lipopolysaccharide (LPS) was injected. LPS induces increased BBB permeability by stimulating formation and release of cytokines and other molecules.
Two different Aftin compounds were tested in this example: […]. […]

[2] = as demonstrated in WO2018/189122; cited from earlier work
[3] = tested on: HI (Hypoxia-Ischemia) injury; assay: Rice-Vannucci neonatal HI model, infarct measurement; assay type: in vivo, Wistar rats; conditions: P7 rats, 30 mg/kg IP immediately after hypoxia, 24 h and 48 h; read 72 h after HI (P10); compared to HI+PL; males and females
Source text: Subjects were Wistar rats born from time-mated dams obtain from Charles River Laboratory (Wilmington, […], USA).
Post-natal day 7 (P7) (CNS maturation corresponding to 32-34 weeks of gestation in human) rats were assigned to 3 groups: sham, HI+PL or HI+Compound 13.
In the sham group no hypoxia-ischemia was induced in the rats. This group served as a control group.
In the HI+PL group, where PL stands for placebo, hypoxia-ischemia was induced in the rats. The rats were then further administered a saline vehicle, which served as the placebo.
In the HI+Compound 13 group, hypoxia-ischemia was induced in the rats. The rats were then further administered a dose of Compound 13, which is a compound of formula (I) according to the invention.
The Rice-Vanucci method was used to induce the HI injury (Rice J E et al., 1981) in groups HI+PL and HI+Compound 13.
In summary, each animal from all three groups was anesthetized using 3-4% isoflurane and total absence of leg withdrawal reflexes was verified prior to proceeding to surgery. […]
The infarct was calculated as a percentage of the ratio of the damaged volume to the volume of the total contralateral hemisphere with correction for hemispheric edema, according to the following formula: infarct (%)=[1−(volume of total ipsilateral hemisphere−volume of infarct)/volume of total contralateral hemisphere)]×100%.

SMILES: CC[C@H](CO)Nc1nc(N(C)c2ccccc2)c2ncn(C(C)C)c2n1 [Aftin-5, (2R)-2-[[9-isopropyl-6-(N-methylanilino)purin-2-yl]amino]butan-1-ol]
- permeability of 14C-sucrose through the BBB under inflammatory stress [1]: statistically restored the permeability properties of the BBB
- ability to cross the BBB [2]: able to cross the BBB

SMILES: CC[C@H](CO)Nc1nc(N(CC)Cc2ccccc2)c2ncn(C(C)C)c2n1 [Compound 13, (2R)-2-[[6-[benzyl(ethyl)amino]-9-isopropyl-purin-2-yl]amino]butan-1-ol]
- infarct area / infarct volume of the hemisphere ipsilateral to HI injury [3]: statistically reduced
- permeability of 14C-sucrose through the BBB under inflammatory stress [1]: statistically restored the permeability properties of the BBB
